Test results: US6376478B1, “Pharmaceutical compositions and methods for treating anxiety, anxiety disorders and memory impairment using naaladase inhibitors” (Guilford Pharmaceuticals Inc., priority 1999, dated 2002)
“And” between values parts separate entries of the source, which are not always exact repeats. Equal entries are not always repeated. Marks after values point to notes of the source that are not given here.

Columns and labels:
[1] = biological target: NAALADase (Homo sapiens, UniProt Q04609); assay: In vitro inhibition of NAALADase activity; format: biochemical
[2] = Passive avoidance anxiolytic model (shuttlebox, latency to cross); format: in vivo; conditions: for Latency to Cross, Acquisition Trial, MEAN / Latency to Cross, Acquisition Trial, individual animals: day prior to dosing; for Latency to Cross, Acquisition Trial, individual animals / Latency to Cross, Retention Trial, individual animals: 100 mg/kg; for performance compared with flurazepam in passive avoidance: in some experiments
From the text: The passive avoidance test consists of an acquisition and a retention trial. On the day prior to dosing, the animal is placed into the shuttlebox and allowed to acclimate. A conditioned stimulus (light) is presented for approximately 100 seconds. When the animal crosses to the dark compartment, a mild (0.5 mA) footshock is presented until the animal returns to the lighted compartment or for approximately 10 seconds. Animals failing to cross during acquisition trial is randomly replaced. The day following acquisition, animals are administered test article, saline or flurazepam 10 minutes prior to being placed in the shuttlebox and tested for retention as described above. Latency to cross (in seconds) is recorded.

[3] = Compound 2 100 mg/kg IP group, first study (animals 31-45)
[4] = Compound 2 100 mg/kg IP group, second study (animals 103-414)

NAALADase, sequence (Q04609 whole entry): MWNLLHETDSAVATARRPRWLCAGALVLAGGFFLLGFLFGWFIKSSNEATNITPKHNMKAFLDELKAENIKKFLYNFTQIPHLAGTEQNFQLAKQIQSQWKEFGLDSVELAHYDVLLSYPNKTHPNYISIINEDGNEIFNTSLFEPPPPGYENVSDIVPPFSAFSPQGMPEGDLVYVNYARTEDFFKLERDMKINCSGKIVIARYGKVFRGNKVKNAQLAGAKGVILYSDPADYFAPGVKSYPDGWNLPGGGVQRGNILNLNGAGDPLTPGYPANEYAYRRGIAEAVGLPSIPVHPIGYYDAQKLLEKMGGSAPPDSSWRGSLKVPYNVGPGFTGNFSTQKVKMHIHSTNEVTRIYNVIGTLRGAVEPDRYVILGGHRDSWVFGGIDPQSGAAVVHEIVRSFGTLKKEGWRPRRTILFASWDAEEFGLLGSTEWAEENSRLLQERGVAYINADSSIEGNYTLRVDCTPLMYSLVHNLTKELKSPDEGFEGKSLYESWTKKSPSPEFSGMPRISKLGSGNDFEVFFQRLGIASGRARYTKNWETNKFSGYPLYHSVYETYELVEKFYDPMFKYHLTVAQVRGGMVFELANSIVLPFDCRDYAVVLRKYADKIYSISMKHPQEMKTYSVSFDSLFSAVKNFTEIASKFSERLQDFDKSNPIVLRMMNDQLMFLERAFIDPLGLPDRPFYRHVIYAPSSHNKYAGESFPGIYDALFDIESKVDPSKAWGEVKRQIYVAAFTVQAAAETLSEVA

SMILES	Ki [1] [nM]	other results
O=C(O)CCC(CC(S)c1cccc2ccccc12)C(=O)O (stereo not drawn)	10000	–
O=C(O)CCC(CP(=O)(O)Cc1ccccc1)C(=O)O (stereo not drawn)	53	–
O=C(O)CCC(CP(=O)(O)c1ccccc1)C(=O)O (stereo not drawn)	36	–
CCCCP(=O)(O)CC(CCC(=O)O)C(=O)O (stereo not drawn)	114	–
Cc1cccc(P(=O)(O)CC(CCC(=O)O)C(=O)O)c1 (stereo not drawn)	180	–
O=C(O)CCC(CP(=O)(O)CCc1ccccc1)C(=O)O (stereo not drawn)	148	–
O=C(O)CCC(CP(=O)(O)CCCc1ccccc1)C(=O)O (stereo not drawn)	232	–
O=C(O)CCC(CP(=O)(O)c1ccc(F)cc1)C(=O)O (stereo not drawn)	532	–
CP(=O)(O)CC(CCC(=O)O)C(=O)O (stereo not drawn)	1100	–
Cc1ccc(CP(=O)(O)CC(CCC(=O)O)C(=O)O)cc1 (stereo not drawn)	68	–
O=C(O)CCC(CP(=O)(O)Cc1ccc(F)cc1)C(=O)O (stereo not drawn)	70	–
O=C(O)CCC(CP(=O)(O)Cc1ccccc1F)C(=O)O (stereo not drawn)	145	–
Cc1ccc(P(=O)(O)CC(CCC(=O)O)C(=O)O)cc1 (stereo not drawn)	204	–
O=C(O)C(CCc1ccccc1)CP(=O)(O)O (stereo not drawn)	199	–
O=C(O)CCCC(CP(=O)(O)O)C(=O)O (stereo not drawn)	185	–
O=C(O)CCC(CP(=O)(O)Cc1ccc(OCc2ccccc2)cc1)C(=O)O (stereo not drawn)	177	–
O=C(O)CCC(CP(=O)(O)Cc1cccc(C(F)(F)F)c1)C(=O)O (stereo not drawn)	22	–
O=C(O)CCC(CP(=O)(O)Cc1ccccc1C(F)(F)F)C(=O)O (stereo not drawn)	92	–
O=C(O)CCC(CP(=O)(O)Cc1ccc(O)cc1)C(=O)O (stereo not drawn)	117	–
CC(CP(=O)(O)O)C(=O)O (stereo not drawn)	2	–
O=C(O)C(Cc1ccccc1)CP(=O)(O)O (stereo not drawn)	548	–
O=C(O)CCP(=O)(O)O	234	–
COC(=O)c1ccc(CP(=O)(O)CC(CCC(=O)O)C(=O)O)cc1 (stereo not drawn)	740	–
CC(C)(C)OC(=O)CCC(CP(=O)(CC(CCC(=O)O)C(=O)O)OC(C)(C)C)C(=O)OC(C)(C)C (stereo not drawn)	4250	–
O=C(O)CCC(CP(=O)(O)CC(CCC(=O)OCc1ccccc1)C(=O)OCc1ccccc1)C(=O)O (stereo not drawn)	13	–
O=C(O)CCC(CP(=O)(O)CC(CCC(=O)O)C(=O)O)C(=O)O (stereo not drawn)	0.6	–

SMILES	Ki [1] [nM]	other results
CC(CP(=O)(O)CC(CCC(=O)O)C(=O)O)C(=O)OCc1ccccc1 (stereo not drawn)	95	–
CC(CP(=O)(O)CC(CCC(=O)O)C(=O)O)C(=O)O (stereo not drawn)	2	–
O=C(O)CCC(CP(=O)(O)C(NCc1ccccc1)c1ccccc1)C(=O)O (stereo not drawn)	313	–
O=C(O)CCC(CP(=O)(O)C(NC(=O)O)c1ccccc1)C(=O)O (stereo not drawn)	2000	–
O=C(O)CCC(CP(=O)(O)CNCc1ccccc1)C(=O)O (stereo not drawn)	52	–
CC(=O)NCP(=O)(O)CC(CCC(=O)O)C(=O)O (stereo not drawn)	118	–
O=C(O)CCC(CP(=O)(O)CN(Cc1ccccc1)Cc1ccccc1)C(=O)O (stereo not drawn)	175	–
O=C(O)CCC(CP(=O)(O)CN1C(=O)c2ccccc2C1=O)C(=O)O (stereo not drawn)	34	–
O=C(O)CCC(CP(=O)(O)CNC(=O)c1ccccc1)C(=O)O (stereo not drawn)	142	–
O=C(O)CCC(CP(=O)(O)CNS(=O)(=O)c1ccccc1)C(=O)O (stereo not drawn)	90	–
O=C(O)CCC(CP(=O)(O)CNc1ccc(F)cc1)C(=O)O (stereo not drawn)	9	–
COc1ccc(NCP(=O)(O)CC(CCC(=O)O)C(=O)O)cc1 (stereo not drawn)	2	–
Cc1ccc(NCP(=O)(O)CC(CCC(=O)O)C(=O)O)cc1 (stereo not drawn)	5	–
CC(C)(C)c1ccc(NCP(=O)(O)CC(CCC(=O)O)C(=O)O)cc1 (stereo not drawn)	2	–
O=C(O)CCC(CP(=O)(O)CNC(=S)Nc1ccccc1)C(=O)O (stereo not drawn)	75	–
CC(CS)CC(CCC(=O)O)C(=O)O (mixture of isomers) [2-(3-sulfanyl-2-methylpropyl)pentanedioic acid]	239	–
CCC(CS)C(CCC(=O)O)C(=O)O (stereo not drawn) [2-(1-ethyl-2-sulfanylethyl)pentanedioic acid]	1550	–
CC(CS)C(CCC(=O)O)C(=O)O (stereo not drawn) [2-(1-methyl-2-sulfanylethyl)penanedioic acid]	843	–
CCCCC(S)CC(CCC(=O)O)C(=O)O (stereo not drawn) [2-(2-sulfanylhexyl)pentanedioic acid]	4750	–
O=C(O)CCC(CCCS)C(=O)O (stereo not drawn) [2-(3-sulfanylpropyl)pentanedioic acid]	–	anxiolytic properties in passive avoidance ([2]; Example 15, written in present tense): exhibit anxiolytic properties
O=C(O)CC(CP(=O)(O)O)C(=O)O (stereo not drawn) [2-(phosphonomethyl) succinic acid]	700	–
O=C(O)CCC(CCSSCCC(CCC(=O)O)C(=O)O)C(=O)O (stereo not drawn) [2-[2-[(3,5-dicarboxypentyl)dithio]ethyl]pentanedioic acid]	16500	–
O=C(O)CCC(CP(=O)(O)CCC(=O)O)C(=O)O (stereo not drawn) [2-[[(2-carboxyethyl)hydroxyphosphinyl]methyl]pentanedioic acid]	2	–
O=C(O)CCC(CP(=O)(O)Cc1c(F)c(F)c(F)c(F)c1F)C(=O)O (stereo not drawn) [Compound 2, 2-[[(2,3,4,5,6-pentafluorobenzyl)hydroxyphosphinyl]methyl]pentanedioic acid]	–	Latency to Cross, Acquisition Trial, MEAN [2, 3]: 6.7 s; Latency to Cross, Acquisition Trial, individual animals [2, 3]: 4.0 seconds and 0.1 seconds (2×) and 14.9 seconds and 5.0 seconds and 6.4 seconds and 9.5 seconds and 4.6 seconds and 5.7 seconds and 13.0 seconds and 5.1 seconds and 6.2 seconds and 10.1 seconds and 4.3 seconds and 11.4 seconds; Latency to Cross, Acquisition Trial, MEAN [2, 4]: 7.5 s; Latency to Cross, Acquisition Trial, individual animals [2, 4]: 0.0 s and 11.4 s and 12.1 s and 1.5 s and 1.6 s and 7.0 s and 6.8 s and 20.0 s and 2.3 s and 0.6 s and 9.6 s and 3.2 s and 10.4 s and 5.7 s and 18.7 s; Latency to Cross, Retention Trial, MEAN ([2]; Compound 2 100 mg/kg IP, first study (animals 31-45), significance difference compared to Group 1, p ≦ 0.05): 66.8^a seconds; Latency to Cross, Retention Trial, individual animals ([2]; Compound 2 100 mg/kg IP, first study (animals 31-45), stimulus about 100 seconds): 9.8 seconds and 7.1 seconds and 4.8 seconds and 100.0 seconds (8×) and 88.4 seconds and 7.8 seconds and 15.8 seconds and 68.4 seconds; Latency to Cross, Retention Trial, MEAN ([2]; Compound 2 100 mg/kg IP, second study (animals 103-414), animal 406 omitted): 29.6 s; Latency to Cross, Retention Trial, individual animals ([2]; Compound 2 100 mg/kg IP, second study (animals 103-414), animal 406 omitted from statistical analysis): 3.1 seconds and 33.9 seconds and 100.0 seconds (2×) and 13.2 seconds and 6.6 seconds and 39.4 seconds and 7.9 seconds and 33.2 seconds and 8.4 seconds and 41.5 seconds and 19.5 seconds and 7.3 seconds and 100.0^b seconds and 0.3 seconds; anxiolytic properties in passive avoidance ([2]; Example 14): exhibit anxiolytic properties; performance compared with flurazepam in passive avoidance ([2]; Example 14): performed better than the known anxiolytic agent, flurazepam
O=C(O)CCC(CP(=O)(O)O)C(=O)O (stereo not drawn) [Compound 3, 2-(phosphonomethyl)pentanedioic acid]	–	Latency to Cross, Retention Trial, MEAN ([2]; Compound 3 100 mg/kg IP): 43.0 s; Latency to Cross, Acquisition Trial, MEAN ([2]; Compound 3 100 mg/kg IP group): 7.8 s; Latency to Cross, Acquisition Trial, individual animals ([2]; Compound 3 100 mg/kg IP group): 11.8 s and 11.5 s and 9.2 s and 0.8 s and 0.6 s and 2.9 s and 18.6 s and 9.3 s and 0.2 s and 2.0 s and 5.9 s and 6.1 s and 25.0 s and 2.2 s and 10.5 s; Latency to Cross, Retention Trial, individual animals ([2]; Compound 3 100 mg/kg IP, stimulus about 100 seconds): 100.0 seconds (4×) and 4.6 seconds and 9.9 seconds and 47.4 seconds and 12.9 seconds and 20.6 seconds and 6.6 seconds and 33.0 seconds and 89.8 seconds and 5.2 seconds and 5.9 seconds and 8.5 seconds; anxiolytic properties in passive avoidance ([2]; Example 14): exhibit anxiolytic properties; performance compared with flurazepam in passive avoidance ([2]; Example 14): performed better than the known anxiolytic agent, flurazepam
O=C(O)CCC(CP(=O)(O)Cc1c(F)c(F)c(F)c(F)c1F)C(=O)O (stereo not drawn) [drawing 45]	23	–
